Data on five compounds can be found in US6951729B1, “High throughput screening method for biological agents affecting fatty acid biosynthesis” (Affinium Pharmaceuticals, Inc., priority 1999, dated 2005).

In one assay the test system is FabK. Briefly: FabK activity assay, activation by monovalent cations. The class given is biochemical, Streptococcus pneumoniae. The note with it: NH4+ at 100 mM. How it is done:
FabK catalyses the reduction of enoyl-ACPs with the concommitant oxidation of NADH. Crotonoyl-ACP can be prepared as described below. The reduction of crotonoyl-ACP to butyryl-ACP can be monitored by following the change in absorbance at 340 nm as NADH is oxidised.
Assays were carried out in Costar 3696 half-area plates in a fmal assay volume of 150 μl on a Spectramax platereader. Substrates, NADH and crotonoyl ACP, were incubated with FabK enzyme in […] N-[2-acetamido]-2 iminodiacetic acid (ADA), pH 6.5, 100 mM NH4Cl, 4% glycerol at 30° C. and the reaction monitored at 340 nm. This assaying can also be performed using crotonyl CoA, NADPH or an NADH analogue as a substrate.

In assay [1] the test system is bacterial fatty acid biosynthesis. The note with it: cited from earlier work.
The target of assay [2] is FabH (Escherichia coli, UniProt P0A6R0). The note with it: Heath et al. 1996; cited from earlier work.
The target in the next assay is FabI (Escherichia coli, UniProt P0AEK4). The settings on record: Heath et al. 1996; cited from earlier work.
Assay [3] concerns FabH. The note with it: through formation of dead end inhibition complexes with enzyme.

Sequence of FabH (Escherichia coli, UniProt P0A6R0) (P0A6R0 whole entry): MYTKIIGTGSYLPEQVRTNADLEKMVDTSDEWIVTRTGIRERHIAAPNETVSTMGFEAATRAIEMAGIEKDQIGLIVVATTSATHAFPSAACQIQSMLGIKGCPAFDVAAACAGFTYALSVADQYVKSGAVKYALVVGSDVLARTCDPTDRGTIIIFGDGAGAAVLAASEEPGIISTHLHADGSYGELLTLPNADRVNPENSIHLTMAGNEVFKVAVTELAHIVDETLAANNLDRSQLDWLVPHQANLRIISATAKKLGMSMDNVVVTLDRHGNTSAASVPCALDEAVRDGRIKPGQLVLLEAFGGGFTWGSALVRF
Sequence of FabI (P0AEK4 whole entry): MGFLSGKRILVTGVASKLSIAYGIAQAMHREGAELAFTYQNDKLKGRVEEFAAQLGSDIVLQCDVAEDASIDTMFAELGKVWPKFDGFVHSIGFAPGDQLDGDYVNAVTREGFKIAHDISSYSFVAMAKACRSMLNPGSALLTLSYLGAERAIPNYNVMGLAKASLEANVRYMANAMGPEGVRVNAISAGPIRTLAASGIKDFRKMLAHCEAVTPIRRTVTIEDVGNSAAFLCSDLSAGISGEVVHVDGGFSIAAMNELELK

Turning to `N` [NH4^+], the “activation of the FabK reaction over the reaction with no monovalent cations” value with FabK is given as “about 300 fold”. For the compound `C=C/C(C)=C/[C@@]1(C)SC(=O)C(C)=C1O` [thiolactomycin], the “inhibition of bacterial fatty acid biosynthesis” value in assay [1] was “potent inhibitors”. As to `C/C=C/C/C=C/CCC(=O)[C@H]1O[C@H]1C(N)=O` [Cerulenin], in assay [1], the “inhibition of bacterial fatty acid biosynthesis” value is listed as “potent inhibitors”. Regarding palmitoyl-ACP, the “feedback inhibition of FabH” value on FabH [2] is “feedback inhibition”. Also, on FabI, the “feedback inhibition of FabI” value is recorded as “feedback inhibition”.

Take Acetyl-ACP: the “inhibition of FabH” value with FabH [3] is on record as “inhibitor of FabH”.
